From ChEMBL document CHEMBL1201862, “PubChem BioAssay data set” (2004)
Activity calls are given as the source filed them.

Columns and labels:
[1] = target: Voltage-dependent T-type calcium channel subunit alpha-1H (Homo sapiens, UniProt O95180); type: functional;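 also: channel activity triggered by adding a high calcium stimulation buffer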
[2] = target: T1, High affinity choline transporter 1 (Homo sapiens, UniProt Q9GZV3); experiment: human choline transporter blockers, potency – cell-based, 5-point CRC, membrane potential dye, dose response (AID 504840); type: functional
T1 sequence (Q9GZV3 whole entry): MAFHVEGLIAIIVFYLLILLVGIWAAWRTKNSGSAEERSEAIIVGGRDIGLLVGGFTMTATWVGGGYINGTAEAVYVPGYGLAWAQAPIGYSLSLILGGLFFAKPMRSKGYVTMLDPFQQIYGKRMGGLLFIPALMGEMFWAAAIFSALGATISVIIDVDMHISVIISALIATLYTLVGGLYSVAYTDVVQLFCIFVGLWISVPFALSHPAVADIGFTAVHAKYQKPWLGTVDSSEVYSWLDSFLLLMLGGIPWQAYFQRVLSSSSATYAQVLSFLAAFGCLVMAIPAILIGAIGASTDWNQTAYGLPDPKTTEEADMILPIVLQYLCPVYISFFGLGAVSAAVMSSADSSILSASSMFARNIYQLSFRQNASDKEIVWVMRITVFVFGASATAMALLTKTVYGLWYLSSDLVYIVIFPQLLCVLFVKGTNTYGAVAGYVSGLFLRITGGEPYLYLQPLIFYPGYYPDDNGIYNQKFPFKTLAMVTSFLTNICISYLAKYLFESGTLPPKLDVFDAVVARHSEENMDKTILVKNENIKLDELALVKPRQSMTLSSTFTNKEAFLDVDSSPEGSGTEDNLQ

Aminopeptidase N = target: T2, Aminopeptidase N (Plasmodium falciparum FcB1/Columbia, UniProt O96935); experiment: malaria alanyl aminopeptidase activity blockers – biochemical, fluorogenic H-Leu-NHMec substrate, 1536-well (AID 1445); parameters: species or system Plasmodium falciparum 3D7, 3D7
T2 sequence (O96935 whole entry): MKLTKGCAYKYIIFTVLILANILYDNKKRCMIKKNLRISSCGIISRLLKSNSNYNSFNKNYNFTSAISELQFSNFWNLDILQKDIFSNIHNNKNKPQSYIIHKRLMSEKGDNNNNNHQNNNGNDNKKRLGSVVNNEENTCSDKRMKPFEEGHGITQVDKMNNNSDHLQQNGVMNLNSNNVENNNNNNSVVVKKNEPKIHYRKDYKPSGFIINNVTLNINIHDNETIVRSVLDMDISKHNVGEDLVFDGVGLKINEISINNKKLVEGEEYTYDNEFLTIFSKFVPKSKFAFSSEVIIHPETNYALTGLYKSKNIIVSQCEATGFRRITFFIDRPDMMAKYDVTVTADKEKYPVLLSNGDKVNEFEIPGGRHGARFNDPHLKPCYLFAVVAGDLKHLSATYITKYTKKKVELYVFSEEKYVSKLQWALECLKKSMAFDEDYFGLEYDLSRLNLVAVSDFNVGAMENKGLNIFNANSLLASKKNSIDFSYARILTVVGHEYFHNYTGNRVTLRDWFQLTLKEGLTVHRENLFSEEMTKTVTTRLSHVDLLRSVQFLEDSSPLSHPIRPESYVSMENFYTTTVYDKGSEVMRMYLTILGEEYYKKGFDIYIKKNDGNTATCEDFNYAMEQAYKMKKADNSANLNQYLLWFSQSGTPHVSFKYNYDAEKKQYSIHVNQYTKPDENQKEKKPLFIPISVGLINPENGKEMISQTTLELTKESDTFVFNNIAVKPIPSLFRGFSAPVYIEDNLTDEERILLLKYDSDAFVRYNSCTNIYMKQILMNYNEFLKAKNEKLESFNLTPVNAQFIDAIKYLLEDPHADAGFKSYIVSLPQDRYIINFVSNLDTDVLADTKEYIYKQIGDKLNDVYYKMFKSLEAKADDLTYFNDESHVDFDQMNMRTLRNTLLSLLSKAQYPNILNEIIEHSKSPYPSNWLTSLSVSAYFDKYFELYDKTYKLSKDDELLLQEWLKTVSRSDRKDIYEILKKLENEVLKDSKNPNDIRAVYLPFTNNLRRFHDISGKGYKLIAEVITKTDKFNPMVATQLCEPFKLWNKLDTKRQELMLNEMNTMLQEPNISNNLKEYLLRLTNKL

[3] = reduction of Shn3 3'UTR-driven luciferase in osteoblasts – cell-based, Clone20 osteoblasts, firefly luciferase, cherry-picked, dose response (AID 624132); type: functional;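 also: firefly luciferase luminescence from reporter carrying the Shn3 3'UTR in osteoblasts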
[4] = non-specific 3'UTR reporter inhibition in Clone20-Shn3RL – cell-based, Renilla luciferase, cherry-picked, counter-screen for Shn3 inhibitor project, dose response (AID 624133); type: functional
[5] = loss of viability in HepG2 cells – cell-based, CellTiter-Glo, cherry-picked, cytotoxicity control for Shn3 inhibitor project, dose response (AID 624134); type: functional
[6] = target: T3, Ubiquitin-conjugating enzyme E2 N (Homo sapiens, UniProt P61088); type: functional;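 also: Dose-response confirmation in a TR-FRET assay detecting UBC13-driven polyubiquitin chain formation, inhibition measured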
T3 sequence (P61088 whole entry): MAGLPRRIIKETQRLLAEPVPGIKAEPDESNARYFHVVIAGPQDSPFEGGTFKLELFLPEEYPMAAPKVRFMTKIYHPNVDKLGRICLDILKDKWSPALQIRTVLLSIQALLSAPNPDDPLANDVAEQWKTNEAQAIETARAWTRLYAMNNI

[7] = alpha-synuclein stem-loop luciferase translation blockers – H4 neuroglioma cells, luminescence, confirmation (AID 1988); type: functional, cell-based
[8] = luciferase reporter signal suppression in cells – H4 neuroglioma cells, luminescence, dose response (AID 1990); type: functional, cell-based
[9] = target: T4, Heat shock factor protein 1 (Mus musculus, UniProt P38532); experiment: enhancement of HSF1-driven luciferase signal – cell-based, NIH3T3, luminescence, dose retest, confirmation (AID 435004); type: functional;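 also: stress induced by proteasome inhibitor MG132 added 30 min after compound; luciferase reporter driven by HSF1 response element in NIH3T3 cells; actives raise luminescence as potentiators of the MG132 stress response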
T4 sequence (P38532 whole entry): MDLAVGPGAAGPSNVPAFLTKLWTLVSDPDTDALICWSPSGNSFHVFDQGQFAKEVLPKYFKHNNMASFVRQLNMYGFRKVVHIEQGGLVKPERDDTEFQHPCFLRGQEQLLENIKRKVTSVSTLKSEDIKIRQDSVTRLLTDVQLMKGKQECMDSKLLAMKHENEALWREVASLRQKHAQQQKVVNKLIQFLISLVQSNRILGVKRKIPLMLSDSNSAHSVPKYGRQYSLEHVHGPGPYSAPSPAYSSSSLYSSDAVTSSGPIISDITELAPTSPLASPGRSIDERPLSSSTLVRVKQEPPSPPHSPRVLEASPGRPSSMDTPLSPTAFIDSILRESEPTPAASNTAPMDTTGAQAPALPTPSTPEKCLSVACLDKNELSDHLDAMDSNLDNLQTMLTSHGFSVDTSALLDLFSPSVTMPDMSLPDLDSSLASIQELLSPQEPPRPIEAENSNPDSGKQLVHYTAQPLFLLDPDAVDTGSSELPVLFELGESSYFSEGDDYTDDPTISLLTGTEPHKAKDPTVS

[10] = Luminescence Cell-Based Dose Response HTS to Identify Inhibitors of 5'UTR Stem-Loop Driven Prion Protein mRNA Translation in H4 Neuroglioblastoma Cells. [Related pubchem assays: 1827 (Project Summary), 1813 (Primary HTS)]; type: functional
[11] = viability of uninfected HEp-2 cells – cell-based, HTS, cytotoxicity control for RSV inhibitor project, dose response (AID 2410); type: functional; details: human respiratory syncytial virus

Voltage-dependent T-type calcium channel subunit alpha-1H, sequence (O95180 whole entry): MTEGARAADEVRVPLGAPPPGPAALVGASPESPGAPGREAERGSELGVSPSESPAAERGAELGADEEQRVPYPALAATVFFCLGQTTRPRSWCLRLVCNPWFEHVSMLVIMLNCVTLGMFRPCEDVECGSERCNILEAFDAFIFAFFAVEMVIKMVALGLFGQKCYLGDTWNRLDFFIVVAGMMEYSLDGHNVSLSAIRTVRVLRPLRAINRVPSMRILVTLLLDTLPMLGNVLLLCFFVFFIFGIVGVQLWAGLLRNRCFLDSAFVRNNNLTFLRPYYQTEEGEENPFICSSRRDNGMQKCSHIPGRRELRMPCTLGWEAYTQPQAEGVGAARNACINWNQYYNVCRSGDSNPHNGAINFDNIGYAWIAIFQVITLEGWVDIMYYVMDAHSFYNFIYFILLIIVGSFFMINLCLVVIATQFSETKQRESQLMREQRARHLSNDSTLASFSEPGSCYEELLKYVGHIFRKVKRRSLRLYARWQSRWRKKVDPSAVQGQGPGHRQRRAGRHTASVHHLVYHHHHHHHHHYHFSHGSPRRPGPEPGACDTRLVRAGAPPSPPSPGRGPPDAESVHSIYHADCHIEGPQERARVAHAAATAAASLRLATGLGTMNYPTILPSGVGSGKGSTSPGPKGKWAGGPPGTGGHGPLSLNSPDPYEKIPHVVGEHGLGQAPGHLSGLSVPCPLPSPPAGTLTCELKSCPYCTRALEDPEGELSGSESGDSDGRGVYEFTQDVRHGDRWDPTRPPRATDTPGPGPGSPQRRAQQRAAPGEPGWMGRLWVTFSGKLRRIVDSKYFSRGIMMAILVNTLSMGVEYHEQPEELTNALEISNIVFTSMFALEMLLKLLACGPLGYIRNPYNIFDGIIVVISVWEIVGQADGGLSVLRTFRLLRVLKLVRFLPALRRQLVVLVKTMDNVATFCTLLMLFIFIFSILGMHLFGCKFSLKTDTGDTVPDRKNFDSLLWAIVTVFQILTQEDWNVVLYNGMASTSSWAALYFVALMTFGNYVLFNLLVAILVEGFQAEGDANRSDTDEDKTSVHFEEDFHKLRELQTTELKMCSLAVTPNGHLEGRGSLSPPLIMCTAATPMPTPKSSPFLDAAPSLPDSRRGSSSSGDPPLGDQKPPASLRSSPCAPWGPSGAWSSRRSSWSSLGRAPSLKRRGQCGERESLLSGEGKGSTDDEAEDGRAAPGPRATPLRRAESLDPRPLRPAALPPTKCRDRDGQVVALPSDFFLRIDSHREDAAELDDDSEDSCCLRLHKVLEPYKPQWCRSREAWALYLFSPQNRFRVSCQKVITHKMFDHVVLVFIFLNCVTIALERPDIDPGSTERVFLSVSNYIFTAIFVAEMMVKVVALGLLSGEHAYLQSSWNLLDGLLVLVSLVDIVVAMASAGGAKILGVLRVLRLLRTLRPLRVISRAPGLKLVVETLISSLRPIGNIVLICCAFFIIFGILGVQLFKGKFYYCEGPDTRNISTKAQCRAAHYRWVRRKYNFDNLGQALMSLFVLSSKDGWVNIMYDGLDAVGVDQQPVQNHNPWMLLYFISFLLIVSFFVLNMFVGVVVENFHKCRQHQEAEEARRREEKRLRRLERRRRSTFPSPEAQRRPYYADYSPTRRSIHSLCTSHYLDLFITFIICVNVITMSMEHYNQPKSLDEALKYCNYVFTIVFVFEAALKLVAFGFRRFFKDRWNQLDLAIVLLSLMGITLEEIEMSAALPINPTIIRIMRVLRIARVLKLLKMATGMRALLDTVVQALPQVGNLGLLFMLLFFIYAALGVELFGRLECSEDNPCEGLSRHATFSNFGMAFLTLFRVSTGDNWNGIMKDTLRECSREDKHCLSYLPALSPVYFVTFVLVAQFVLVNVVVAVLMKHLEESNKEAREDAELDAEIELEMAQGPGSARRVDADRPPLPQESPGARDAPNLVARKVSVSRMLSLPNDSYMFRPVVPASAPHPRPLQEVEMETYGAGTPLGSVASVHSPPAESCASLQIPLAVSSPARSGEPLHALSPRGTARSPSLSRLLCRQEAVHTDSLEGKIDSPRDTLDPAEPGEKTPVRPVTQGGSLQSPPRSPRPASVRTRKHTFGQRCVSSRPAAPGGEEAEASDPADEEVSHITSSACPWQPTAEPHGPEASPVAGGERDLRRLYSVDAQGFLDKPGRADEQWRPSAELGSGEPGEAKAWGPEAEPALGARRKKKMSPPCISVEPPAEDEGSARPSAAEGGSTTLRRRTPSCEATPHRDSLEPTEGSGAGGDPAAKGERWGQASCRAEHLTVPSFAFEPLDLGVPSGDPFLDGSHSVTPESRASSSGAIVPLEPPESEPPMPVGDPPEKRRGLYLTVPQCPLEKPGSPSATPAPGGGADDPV

## Cc1ccc(-c2nnn(CC(=O)N(c3ccccc3F)C(C(=O)NCC3CCCO3)c3c[nH]c4ccccc34)n2)cc1 (configuration not stated)
[1]
  EC50: 4 µM (active)

## Cc1ccc(NC(=O)CSc2nccn2Cc2ccccc2)cc1C
[1]
  EC50: 2.74 µM (active)

## Cc1ccccc1-n1c(C)cc(/C=N/NC(=O)c2ccc(CN3CCOCC3)cc2)c1C
[2]
  IC50: 7.94 µM (active)

## CN(C)Cc1c(O)ccc2c3c(c(=O)oc12)CCCCC3
Aminopeptidase N
  IC50: 44.5 µM (active)

## NS(=O)(=O)c1ccc(CCNCc2cc(Br)ccc2OCc2ccccc2)cc1
[3]
  AC50: 2.92 µM (active)
[4]
  AC50: 5.96 µM (active)
[5]
  AC50: 53.7 µM (active)

## O=C(Cc1c[nH]c2ccccc12)OCCOC(=O)Cc1c[nH]c2ccccc12
[1]
  EC50: 4.77 µM (active)

## CCc1ccc(N(C(=O)c2snc(C(N)=O)c2N)C(C(=O)NCC2CCCO2)c2ccco2)cc1 (configuration not stated)
[6]
  IC50: > 20 µM (inactive)

## CN(C(=S)NC(=O)CCCOc1ccc(Cl)cc1Cl)c1ccccc1
[1]
  EC50: 4.13 µM (active)

## Cc1ccc(C)c(NC(=O)C2C(c3ccccc3)C2(Cl)Cl)c1 (configuration not stated)
[1]
  EC50: 0.968 µM (active)

## Cc1noc(NS(=O)(=O)c2ccc(NC(=O)C(CC(C)C)N3C(=O)c4ccccc4C3=O)cc2)c1C (configuration not stated)
Aminopeptidase N
  IC50: 7.56 µM (active)

## COc1cccc(-c2csc(N3CCN(C(=O)NC45CC6CC(CC(C6)C4)C5)CC3)n2)c1
[1]
  EC50: 5.32 µM (active)

## CC(C)(C)OC(=O)[C@H](Cc1ccccc1)NC(=O)c1nc[nH]c1C(=O)N[C@@H](CCCCN)C(=O)OC(C)(C)C
[6]
  IC50: > 20 µM (inactive)

## CN(C)C1(C/N=C/c2cc(Cl)cc([N+](=O)[O-])c2O)CCCCC1
[2]
  IC50: 14.5 µM (active)

## CC(C)CC(/C(O)=C(\C#N)c1nc2ccccc2[nH]1)N1C(=O)c2ccccc2C1=O (configuration not stated)
[1]
  EC50: 14.8 µM (active)
[7]
  EC50: 12.3 µM (active)
[8]
  EC50: > 120 µM (not active)
[9]
  EC50: > 260 µM (inactive)
[10]
  EC50: > 120 µM (not active)
[11]
  CC50: 21 µM (active)

## CC(=O)NC(c1ccco1)c1cc(Cl)c2ccccc2c1O (configuration not stated)
[6]
  IC50: > 20 µM (inactive)
